What was measured:
Escherichia coli [1] = details: EDTA 5 mM; PBS, distilled water, TSB, plasma
Method: (§1) Prepare a solution of PicoGreen at 1/2000 (molecular probe) in PBS buffer. EDTA 5 mM: 0.093 g disodic EDTA, QSP 50 mL distilled water. Suspension of bacteria prepared in PBS in distilled water in a TSB (tryptone soy broth) environment and in plasma. • Escherichia coli (CIP 105901) • Staphylococcus epidermidis (CIP 68.21) Adjust the preparations to obtain a suspension with 10^3 bacteria/ml. • 1.2 mL of marking solution • +3 mL of bacterial suspension in the various environments • Incubation 15 minutes at 22° C. • +7 mL of EDTA solution • Filtration on char filter 0.4 μm porosity. III Analysis and Results After filtration, the filter is analyzed by cytometry in solid phase and the results are expressed as the number of fluorescent bacteria.

[2] = tested on: Staphylococcus epidermidis; details: EDTA 5 mM; PBS, distilled water, TSB, plasma
Method: as §1

Escherichia coli [3] = assay: PicoGreen DNA marking with association nisine/EDTA, cytometry in solid phase; assay type: cell-based
Method: (§2) Prepare a solution of PicoGreen at 1/2000 (molecular probe) in PBS buffer (saline phosphate buffer, pH 7.4).
Nisine 10 μg/ml: 0.02 g nisine (starting material at 2.5% weight/weight) QSP 50 ml distilled water. • EDTA 20 mM: 0.372 g disodic EDTA, QSP 50 ml of distilled water, • Prepare a range of EDTA with 0.25; 2.5; 12.5 and 18.75 ml of EDTA 20 mM (concentration range 0.1; 1; 5 and 7.5 mM), • Add 50, 250, 500 μl or 1 ml nisine 10 μg/ml (concentration range […]; 0.05; 0.1 and […]), • QSP 50 ml of distilled water. Suspension of Bacteria Prepared in PBS • Escherichia coli (CIP 105901)
(§3) Adjust the preparations to obtain a suspension with 10^3 bacteria/ml.
• 1.2 ml of marking solution • +3 ml bacterial suspension • Incubation 15 minutes at 22° C. • +7 ml of solution of nisine or nisine/EDTA • Filtration on char filter 0.4 μm porosity. III Analysis and Results
After filtration, the filter is analyzed by cytometry in solid phase and the results expressed as the number of bacteria detected in cytometry in solid phase and as a percentage of bacteria detected relative to the method of enzymatic detection.

[4] = tested on: Escherichia coli, Serratia marcescens, Staphylococcus epidermidis; assay: Optimization of nisine/EDTA concentrations, entirety of bacteria tested; assay type: cell-based
Method: as §2
(§4) […] nisine (starting material at 2.5% weight/weight) in 50 ml distilled water or 10 μg/ml,
(§5) Nisine 0.05 μg/ml/EDTA 7.5 mM: 250 μl nisine 10 μg/ml +0.140 g disodic EDTA, QSP 50 mL distilled water,
(§6) Nisine 0.1 μg/ml/EDTA 7.5 mM: […] nisine 10 μg/ml +0.140 g disodic EDTA, QSP 50 mL distilled water,
(§7) Nisine 0.5 μg/ml/EDTA 7.5 mM: 2.5 ml nisine 10 μg/ml+0.140 g disodic EDTA, QSP 50 mL water.
(§8) • Escherichia coli (CIP 105901) • Staphylococcus epidermidis (CIP 68.21) • Serratia marcescens (CIP 103716)
as §3
(§9) • 1.2 mL marking solution • +3 mL bacterial suspension • Incubation 15 minutes at 22° C. • +7 ml solution of nisine/EDTA at different concentrations • Filtration on char filter 0.4 μm porosity. III Analysis and Results
(§10) After filtration, the filter is analyzed by cytometry in solid phase and the results expressed as the number of bacteria detected in cytometry in solid phase.

Pseudomonas aeruginosa [5] = assay: Marking with nisine/EDTA/N octyl glucopyranoside; assay type: cell-based; details: NOG 0.25% and 0.5% with nisine 0.2 μg/ml, EDTA 7.5 mM
Method: (§11) 100 μg/ml: […] (starting material at 2.5% weight/weight) QSP 50 ml distilled water. • EDTA 100 mM: […] disodic EDTA, QSP 50 ml distilled water, • N octyl glucopyranoside 5%: 2.5 g in 50 ml distilled water • 20, 10, 5 or 2.5 ml NOG at 5% • +3.75 ml EDTA 100 mM • +0.1 ml […] 100 μg/ml • QSP 50 ml distilled water • This solution is at pH 4.8.

[6] = tested on: Staphylococcus epidermidis; assay: Marking with nisine/EDTA/N octyl glucopyranoside; assay type: cell-based; details: NOG 0.25% and 0.5% with nisine 0.2 μg/ml, EDTA 7.5 mM
Method: as §11

[7] = tested on: Escherichia coli, Pseudomonas aeruginosa and Serratia marcescens; assay: Marking in the presence of chlorohexidine alone, Gram- strains; assay type: cell-based; details: tested range 0.01%, 0.005%, 0.001%
Method: (§12) Test implementing chlorohexidine only as permeabilizing agent for favoring the penetration of the bacterial marking agent. […] The counting on a Petri dish at 48 hours takes place with the reference method. The results of this experiment with a composition of the reaction environment comprising chlorohexidine as cellular penetration reactant to improve the marking of Escherichia coli, Pseudomonas aeruginosa and Serratia marcescens (Gram (−) bacterial strains) and Staphylococcus epidermidis are illustrated in FIG. 8.

[8] = tested on: Staphylococcus epidermidis; assay: Marking in the presence of chlorohexidine alone, Gram+; assay type: cell-based; details: chlorohexidine 0.005%
Method: as §12

Pseudomonas aeruginosa [9] = assay: Marking in the presence of chlorohexidine alone in different environments; assay type: cell-based; details: bacteria in PBS, platelet concentrate, autologous plasma
Method: Test implementing chlorohexidine only as permeabilizing agent for favoring the penetration of the bacterial marking agent. […] The counting on a Petri dish at 48 hours takes place with the reference method.

[10] = tested on: Escherichia coli, Staphylococcus epidermidis, Serratia marcescens, Pseudomonas aeruginosa; assay: Marking with association chlorohexidine/N-octyl glucopyranoside; assay type: cell-based; details: most elevated chlorohexidine concentration (0.001% vs 0.0005%) with NOG; PBS and platelet concentrate
From the text: The results of this experiment showing the marking of DA and the detection of marked bacteria in the presence of a composition of the reaction environment comprising chlorohexidine in association with NOG for increasing the permeabilizing power and the penetration of the marker are illustrated in FIGS. 10A and 10B.

[11] = tested on: Staphylococcus epidermidis; assay: PicoGreen DNA marking with nisine alone, cytometry in solid phase; assay type: cell-based; details: nisine solutions 2, 10, 50 μg/ml, bacteria in PBS
Method: The use of nisine solely as a permeabilizing agent for facilitating penetration of the marking agent.
Prepare a series of dilutions of nisine (starting material at 2.5% weight/weight) in distilled water: • 0.1 g nisine in 50 ml distilled water=solution 50 μg/ml, • 0.02 g of nisine in 50 ml distilled water=solution 10 μg/ml, • 0.004 g of nisine in 50 ml distilled water=solution 2 μg/ml. Suspension of Bacteria Prepared in PBS • Escherichia coli (CIP 105901) • Staphylococcus epidermidis (68.21)
Adjust the preparations in order to obtain a suspension with 10^4 bacteria/ml.

Escherichia coli [12] = assay: Optimization of nisine/EDTA concentrations, cytometry in solid phase; assay type: cell-based; details: EDTA fixed at 7.5 mM
Method: as §2, §4, §5, §6, §7, §8, §3, §9, §10

In the case of `O=C([O-])CN(CCN(CC(=O)[O-])CC(=O)O)CC(=O)O.[Na+].[Na+]` [EDTA, disodic EDTA], the “marking of Gram- bacteria with EDTA by itself” value (Escherichia coli [1]) was “does not permit a correct marking”, the “marking of Gram+ bacteria with EDTA by itself” value [2] was “does not permit a correct marking” and the “EDTA concentration at which percentage of marked Escherichia coli is maximal” value (Escherichia coli [3]; with nisine 0.1 μg/ml) was 7.5 mM. The “EDTA concentration giving better detection of the entirety of bacteria tested” value ([4]; associated with nisine 0.2 μg/ml) was 7.5 mM.
`CCCCCCCCO[C@@H]1O[C@H](CO)[C@@H](O)[C@H](O)[C@H]1O` [N octyl glucopyranoside, N-octyl β D-glucopyranoside] was tested, and the “effect of addition on the marking of Pseudomonas aeruginosa” value (Pseudomonas aeruginosa [5]) was “positive effects” and the “effect of addition on the marking of Staphylococcus epidermidis” value [6] was “positive effects”.
In the case of `CC(=O)O.CC(=O)O.NC(=N\CCCCCC/N=C(N)/N=C(\N)Nc1ccc(Cl)cc1)/N=C(\N)Nc1ccc(Cl)cc1` [chlorohexidine, Diacetate chlorohexidine], the “optimal concentration for the detection of Gram- bacteria” value [7] was 0.005%, the “effect on Gram+ bacteria” value [8] was “toxic” and the “effect of plasma on cellular penetration of the marker with chlorohexidine” value (Pseudomonas aeruginosa [9]) was “presence of plasma antagonizes the effect”. The “marking of the bacteria” value [10] was “best marking”.
For nisine, the “preferable nisine concentration for marking” value [11] was “low concentrations are preferable”, the “marking of the Gram+ on addition of nisine” value ([11]; PicoGreen) was “good marking” and the “nisine concentration at which percentage of marked Escherichia coli is maximal” value (Escherichia coli [3]; with EDTA 7.5 mM) was 0.1 µg/mL. For the same compound, the “nisine concentration at which percentage of marked Escherichia coli is maximal” value (Escherichia coli [12]) was 0.1 µg/mL and the “nisine concentration giving better detection of the entirety of bacteria tested” value ([4]; associated with EDTA 7.5 mM) was 0.2 µg/mL.
